Where a name gives a salt, the structure may show the parent alone. Numbered stars: 1 amine (or outer) side, 2 acyl side, 3 side chain; on linkers, the order of the positions; unused ones are H or OH. Bridge positions count the residues as written; N and C are the ends. Square brackets hold non-standard residues; d marks the D form. Side chains are listed from the residue outwards. Peptide text beside a SMILES is read from it. * marks the point of attachment. Trp(1-CH2CO2Me) = COC(=O)Cn1cc(C[C@H](N)C(=O)O)c2ccccc21; Trp(1-CH2COOH) = N[C@@H](Cc1cn(CC(=O)O)c2ccccc12)C(=O)O; X4 = CN(C)S(=O)(=O)NC[C@H](N[*:1])C(=O)[*:2]; Trp(1-Me) = Cn1cc(C[C@H](N)C(=O)O)c2ccccc21; NH(1R-phenylethyl) = C[C@@H](N*)c1ccccc1; Phe(4-F) = N[C@@H](Cc1ccc(F)cc1)C(=O)O; NHCH2CHPh2 = c1ccc(C(CN*)c2ccccc2)cc1; X9 = N#CNCC[C@H](N[*:1])C(=O)[*:2]; X8 = N#CNC[C@H](N[*:1])C(=O)[*:2]; Hyp = O=C(O)[C@@H]1C[C@@H](O)CN1; NMeNle = CCCC[C@H](NC)C(=O)O; NMeC = CN[C@@H](CS)C(=O)O; Pip = O=C(O)[C@@H]1CCCCN1; NMeA = CN[C@@H](C)C(=O)O; Dab = NCC[C@H](N)C(=O)O; Dap = NC[C@H](N)C(=O)O; CO = O=C([*:1])[*:2]; Piv = CC(C)(C)C(=O)*; Tfa = O=C(C(F)(F)F)*
Molecular target: T1, PD-1/PD-L1 (Homo sapiens, UniProt Q9NZQ7)
T1 construct: TVMV protease site linker (C); made in house; host or cells: HEK293T cells
Experiment: PD-1/PD-L1 Homogenous Time-Resolved Fluorescence (HTRF) binding assay
Conditions: PD-L1-His 10 nM final, PD-1-Ig 20 nM final; inhibitors pre-incubated with PD-L1-His for 15 m
Description: The ability of the compounds of formula (I) to bind to PD-L1 was investigated using a PD-1/PD-L1 Homogenous Time-Resolved Fluorescence (HTRF) binding assay.
The interaction of PD-1 and PD-L1 can be assessed using soluble, purified preparations of the extracellular domains of the two proteins. The PD-1 and PD-L1 protein extracellular domains were expressed as fusion proteins with detection tags, for PD-1, the tag was the Fc portion of Immunoglobulin (PD-1-Ig) and for PD-L1 it was the 6 histidine motif (PD-L1-His). All binding studies were performed in an HTRF assay buffer consisting of dPBS supplemented with 0.1% […] bovine serum albumin and 0.05% (v/v) Tween-20. For the h/PD-L1-His binding assay, inhibitors were pre-incubated with PD-L1-His (10 nM final) for 15 m in 4 μl of assay buffer, followed by addition of PD-1-Ig (20 nM final) in 1 μl of assay buffer and further incubation for 15 m. HTRF detection was achieved using europium cryptate-labeled anti-Ig (1 nM final) and allophycocyanin (APC) labeled anti-His (20 nM final). Antibodies were diluted in HTRF detection buffer and 5 μl was dispensed on top of the binding reaction. The reaction mixture was allowed to equilibrate for 30 minutes and the resulting signal (665 nm/620 nm ratio) was obtained using an EnVision fluorometer. Additional binding assays were established between the human proteins PD-1-Ig/PD-L2-His (20 & 5 nM, respectively) and CD80-His/PD-L1-Ig (100 & 10 nM, respectively).
Recombinant Proteins: Human PD-1 (25-167) with a C-terminal human Fc domain of immunoglobulin G (Ig) epitope tag [hPD-1 (25-167)-3S-IG] and human PD-L1 (18-239) with a C-terminal His epitope tag [hPD-L1(18-239)-TVMV-His] were expressed in HEK293T cells and purified sequentially by Protein A affinity chromatography and size exclusion chromatography. Human PD-L2-His and CD80-His was obtained through commercial sources.
Table 3 lists the IC50 values for representative examples of this disclosure measured in the PD-1/PD-L1 Homogenous Time-Resolved Fluorescence (HTRF) binding assay.

| SMILES | IC50 [nM] |
| --- | --- |
| CCCC[C@H]1C(=O)N(C)[C@@H](CCCC)C(=O)N[C@@H](CC(C)C)C(=O)N[C@H](C(=O)NCC(N)=O)CSCC(=O)N[C@@H](Cc2ccc(O)cc2)C(=O)N(C)[C@@H](C)C(=O)N[C@@H](CC(N)=O)C(=O)N2CCC[C@H]2C(=O)N[C@@H](CNS(=O)(=O)N(C)C)C(=O)N[C@@H](CC(C)C)C(=O)N2C[C@H](O)C[C@H]2C(=O)N[C@@H](Cc2c[nH]c3ccccc23)C(=O)N[C@@H](CCN)C(=O)N[C@@H](Cc2cn(CC(=O)O)c3ccccc23)C(=O)N1C [Example 1023] ({CH2CO}-Y[NMeA]NP[X4]L[Hyp]W[Dab][Trp(1-CH2COOH)][NMeNle][NMeNle]LCG-NH2; thioether N-14) | 6.8 |
| CCCC[C@H]1C(=O)N(C)[C@@H](CCCC)C(=O)N[C@@H](CC(C)C)C(=O)N[C@H](C(=O)NCC(N)=O)CSCC(=O)N[C@@H](Cc2ccc(O)cc2)C(=O)N(C)[C@@H](C)C(=O)N[C@@H](CC(N)=O)C(=O)N2CCC[C@H]2C(=O)N[C@@H](CNC(=O)C(F)(F)F)C(=O)N[C@@H](CC(C)C)C(=O)N2C[C@H](O)C[C@H]2C(=O)N[C@@H](Cc2c[nH]c3ccccc23)C(=O)N[C@@H](CCN)C(=O)N[C@@H](Cc2cn(CC(=O)O)c3ccccc23)C(=O)N1C [Example 1046] ({CH2CO}-Y[NMeA]NP[Dap](Tfa)L[Hyp]W[Dab][Trp(1-CH2COOH)][NMeNle][NMeNle]LCG-NH2; thioether N-14) | 2.6 |
| CCCC[C@H]1C(=O)N(C)[C@@H](CCCC)C(=O)N[C@@H](CC(C)C)C(=O)N[C@H](C(=O)NCC(N)=O)CSCC(=O)N[C@@H](Cc2ccc(O)cc2)C(=O)N(C)[C@@H](C)C(=O)N[C@@H](CC(N)=O)C(=O)N2CCC[C@H]2C(=O)N[C@@H](CNC#N)C(=O)N[C@@H](CC(C)C)C(=O)N2C[C@H](O)C[C@H]2C(=O)N[C@@H](Cc2c[nH]c3ccccc23)C(=O)N[C@@H](CCNC#N)C(=O)N[C@@H](Cc2cn(CC(=O)OC)c3ccccc23)C(=O)N1C [Example 1020] ({CH2CO}-Y[NMeA]NP[X8]L[Hyp]W[X9][Trp(1-CH2CO2Me)][NMeNle][NMeNle]LCG-NH2; thioether N-14) | 7.1 |
| CCCC[C@H]1C(=O)N(C)[C@@H](CCCC)C(=O)N[C@@H](CC(C)C)C(=O)N[C@H](C(=O)NCC(N)=O)CSCC(=O)N[C@@H](Cc2ccc(O)cc2)C(=O)N(C)[C@@H](C)C(=O)N[C@@H](CC(N)=O)C(=O)N2CCC[C@H]2C(=O)N[C@@H](CNC(=O)NCC(c2ccccc2)c2ccccc2)C(=O)N[C@@H](CC(C)C)C(=O)N2C[C@H](O)C[C@H]2C(=O)N[C@@H](Cc2c[nH]c3ccccc23)C(=O)N[C@@H](CCNC(=O)NCC(c2ccccc2)c2ccccc2)C(=O)N[C@@H](Cc2cn(CC(=O)O)c3ccccc23)C(=O)N1C [Example 1042] ({CH2CO}-Y[NMeA]NP[Dap]([CO-NHCH2CHPh2])L[Hyp]W[Dab]([CO-NHCH2CHPh2])[Trp(1-CH2COOH)][NMeNle][NMeNle]LCG-NH2; thioether N-14) | 11.4 |
| CCCC[C@H]1C(=O)N(C)[C@@H](CCCC)C(=O)N[C@@H](CC(C)C)C(=O)N[C@H](C(=O)NCC(N)=O)CSCC(=O)N[C@@H](Cc2ccc(O)cc2)C(=O)N(C)[C@@H](C)C(=O)N[C@@H](CC(N)=O)C(=O)N2CCC[C@H]2C(=O)N[C@@H](CNC(=O)NCC(c2ccccc2)c2ccccc2)C(=O)N[C@@H](CC(C)C)C(=O)N2C[C@H](O)C[C@H]2C(=O)N[C@@H](Cc2c[nH]c3ccccc23)C(=O)N[C@@H](CCN)C(=O)N[C@@H](Cc2cn(CC(=O)O)c3ccccc23)C(=O)N1C [Example 1040] ({CH2CO}-Y[NMeA]NP[Dap]([CO-NHCH2CHPh2])L[Hyp]W[Dab][Trp(1-CH2COOH)][NMeNle][NMeNle]LCG-NH2; thioether N-14) | 3 |
| CCCC[C@H]1C(=O)N(C)[C@@H](CCCC)C(=O)N[C@@H](CC(C)C)C(=O)N[C@H](C(=O)NCC(N)=O)CSCC(=O)N[C@@H](Cc2ccc(O)cc2)C(=O)N(C)[C@@H](C)C(=O)N[C@@H](CC(N)=O)C(=O)N2CCC[C@H]2C(=O)N[C@@H](CNC(=O)N[C@H](C)c2ccccc2)C(=O)N[C@@H](CC(C)C)C(=O)N2C[C@H](O)C[C@H]2C(=O)N[C@@H](Cc2c[nH]c3ccccc23)C(=O)N[C@@H](CCN)C(=O)N[C@@H](Cc2cn(CC(=O)O)c3ccccc23)C(=O)N1C [Example 1041] ({CH2CO}-Y[NMeA]NP[Dap]([CO-NH(1R-phenylethyl)])L[Hyp]W[Dab][Trp(1-CH2COOH)][NMeNle][NMeNle]LCG-NH2; thioether N-14) | 4.4 |

Now from value to molecule:

| IC50 [nM] | SMILES |
| --- | --- |
| 8.3 | CCCC[C@H]1C(=O)N(C)[C@@H](CCCC)C(=O)N[C@@H](CC(C)C)C(=O)N[C@H](C(N)=O)CSCC(=O)N[C@@H](Cc2ccc(F)cc2)C(=O)N2CCCC[C@H]2C(=O)N[C@@H](CC(=O)O)C(=O)N2CCC[C@H]2C(=O)N[C@@H](CNC(=O)C(C)(C)C)C(=O)N[C@@H](CC(C)C)C(=O)N2CCC[C@H]2C(=O)N[C@@H](Cc2c[nH]c3ccccc23)C(=O)N[C@@H](CCNC(=O)C(C)(C)C)C(=O)N[C@@H](Cc2cn(CC(=O)O)c3ccccc23)C(=O)N1C [Example 20040] ({CH2CO}-[Phe(4-F)][Pip]DP[Dap](Piv)LPW[Dab](Piv)[Trp(1-CH2COOH)][NMeNle][NMeNle]LC-NH2; thioether N-14) |
| 18.4 | CCCC[C@H]1C(=O)N(C)[C@@H](CCCC)C(=O)N[C@@H](CCC(N)=O)C(=O)N[C@H](C(N)=O)CSCC(=O)N[C@@H](Cc2ccc(F)cc2)C(=O)N2CCCC[C@H]2C(=O)N[C@@H](CC(=O)O)C(=O)N2CCC[C@H]2C(=O)N[C@@H](CNC(=O)C(C)(C)C)C(=O)N[C@@H](CCCCN)C(=O)N2C[C@H](O)C[C@H]2C(=O)N[C@@H](Cc2c[nH]c3ccccc23)C(=O)N[C@@H](CCN)C(=O)N[C@@H](Cc2cn(C)c3ccccc23)C(=O)N1C [Example 20240] ({CH2CO}-[Phe(4-F)][Pip]DP[Dap](Piv)K[Hyp]W[Dab][Trp(1-Me)][NMeNle][NMeNle]QC-NH2; thioether N-14) |
| 18 | CCCC[C@H]1C(=O)N(C)[C@@H](CCCC)C(=O)N[C@@H](CC(C)C)C(=O)N(C)[C@H](C(N)=O)CSCC(=O)N[C@@H](Cc2ccc(F)cc2)C(=O)N2CCCC[C@H]2C(=O)N[C@@H](CC(=O)N(C)C)C(=O)N2CCC[C@H]2C(=O)N[C@@H](CNC(=O)C(C)(C)C)C(=O)N[C@@H](CC(C)C)C(=O)N2C[C@H](O)C[C@H]2C(=O)N[C@@H](Cc2c[nH]c3ccccc23)C(=O)N[C@@H](CO)C(=O)N[C@@H](Cc2cn(CC(=O)O)c3ccccc23)C(=O)N1C [Example 20310] ({CH2CO}-[Phe(4-F)][Pip]D(NMe2)P[Dap](Piv)L[Hyp]WS[Trp(1-CH2COOH)][NMeNle][NMeNle]L[NMeC]-NH2; thioether N-14) |
| 10.5 | CCCC[C@H]1C(=O)N(C)[C@@H](CCCC)C(=O)N[C@@H](CCC(=O)O)C(=O)N[C@H](C(N)=O)CSCC(=O)N[C@@H](Cc2ccc(F)cc2)C(=O)N2CCCC[C@H]2C(=O)N[C@@H](CC(=O)O)C(=O)N2CCC[C@H]2C(=O)N[C@@H](CNC(=O)C(C)(C)C)C(=O)N[C@@H](CC(C)C)C(=O)N2C[C@H](O)C[C@H]2C(=O)N[C@@H](Cc2c[nH]c3ccccc23)C(=O)N[C@@H](CCNC(=O)C(C)(C)C)C(=O)N[C@@H](Cc2cn(CC(=O)O)c3ccccc23)C(=O)N1C [Example 20070] ({CH2CO}-[Phe(4-F)][Pip]DP[Dap](Piv)L[Hyp]W[Dab](Piv)[Trp(1-CH2COOH)][NMeNle][NMeNle]EC-NH2; thioether N-14) |
